Here are results for 3 compounds from patent US11779628B2, “Use of cell-permeable peptide inhibitors of the JNK signal transduction pathway for the treatment of various diseases” (Xigen Inflammation Ltd., priority 2014, dated 2023).

Each structure is given as a SMILES string.

The subject of data set [1] is primary embryonic cultures and differentiated PC12 cells. To be noted: after trophic withdrawal; cited from earlier work.
In another data set the test system is Sprague-Dawley rats, STZ. The data set is described as follows: Rat model of diabetic nephropathy (STZ, high fat diet). Particulars: XG-102 1, 2, 4 mg/kg iv weekly; Losartan 25 mg/kg po daily; 9 weeks. The data set is classed as in vivo. An excerpt:
Losartan has been used as a positive control. Seventy-four male Sprague-Dawley rats (200-250 g; including 4 spare animals) from Charles River (Margate, Kent) were used. […] The diet has been purchased from Research Diets, New Jersey, USA. […] Animals have been housed in pairs throughout the study. […] During the third week of habituation, a blood sample has been taken from the lateral tail vein in the freely fed state using a hand-held glucose meter (One Touch Ultra 2). Blood sampling began at approximately 09:00. […] About 40 animals have been assigned to Cohort A and the remaining 30 to Cohort B, balanced as far as possible for body weight, plasma glucose and food and water intake. […] For the 7-day period post STZ dose, animals have been weighed daily and food and water intake determined twice weekly. For the remaining study duration, animals have been weighed and water and food intake assessed twice weekly (always on the day of intravenous dosing and typically on water refill day(s)). […] Animals have been weighed prior to dosing (this weight was recorded). Food and water have been recorded on the same days as the intravenous groups (A-E) only. […] Creatinine, glucose, urea, total protein and electrolytes (Na, K, Cl and Ca) have been determined on urine samples using a COBAS […] and associated reagents (n=2 for all urine analyses). […] Food consumed and water drunk has also been calculated. […]

Data set [2] has as its system gerbil, transient global ischemia. Particulars: Carboni et al. 2004; cited from earlier work.

As for `CCSCc1ccc2c(c1)c1c3c(c4c5cc(CSCC)ccc5n5c4c1n2[C@H]1C[C@](O)(C(=O)OC)[C@]5(C)O1)CNC3=O` [CEP-1347], the neuronal survival result in data set [1] is “promotes neuronal survival at dosages that inhibit activation of the c-Jun amino-terminal kinases (JNKs)”.

In the case of `CCCCc1nc(Cl)c(CO)n1Cc1ccc(-c2ccccc2-c2nn[nH]n2)cc1` [Losartan], in the data set on Sprague-Dawley rats, STZ, the body weight result was “has been significantly lower”.

Take `N#CC(c1ccnc(NCCc2cccnc2)n1)c1nc2ccccc2s1` (stereo not drawn) [AS601245]: the “delayed loss of hippocampal CA1 neurons” value in data set [2] was “provided significant protection against the delayed loss of hippocampal CA1 neurons”.
